Measured values as given in PubChem BioAssay AID2060896 (Molecular Pharmacology Branch, DTP, NCI, 2025).

Tested on: 941728-121-R-J1-PDC complex spheroid viability
Test: Anticancer human tumor 941728-121-R-J1-PDC patient-derived lung adenocarcinoma cell line growth inhibition [RAS]
Conditions: for IC50: curve of first compound; for viability, T/C: stronger effect = lower value
Description: RAS pathway inhibitors in Combinations in Complex Spheroids
A high-throughput screen of multi-cell type tumor spheroids was designed to identify active combinations of RAS pathway inhibitors and targeted small molecules. Complex spheroids include a stromal component modeled by human endothelial cells (HUVEC) and fibroblasts modeled by human mesenchymal stem cells (MSCs). The concentration ranges selected for each drug and investigational agent were based upon clinically achievable concentrations if the clinical Cmax of the agent was known.
Compounds. The drugs and investigational agents: abemaciclib (NSC768073), cobimetinib (NSC768068), divarasib (GDC6063, NSC841802), docetaxel (NSC628503), GDC-1971 (RLY-1971, NSC841576), gemcitabine (NSC613327), inavolisib (NSC800729), ipatasertib (NSC767898), KB-0742 (NSC834161), MRTX-1133 (NSC836407), osimertinib (NSC779217), RMC-4630 (NSC839698), RMC-6236 (NSC851965), RMC-6291 (NSC852671), Ro-3306 (NSC812927), sapanisertib (NSC764658), SN-38 (NSC673596), staurosporine (NSC755774), SY5609 (NSC837396), and tovorafenib (DAY101, NSC766906), were obtained from the National Cancer Institute (NCI) Developmental Therapeutics Program Chemical Repository. The FDA-approved anticancer drug set is available from the NCI Developmental Therapeutics Program. […] The stock solutions were prepared in dimethyl sulfoxide (DMSO, Sigma-Aldrich, St. Louis, MO, cat. D2650) at 800-fold the tested concentration and stored at -70 degrees C prior to their use. All drugs and investigational agents were tested over a range starting from a high concentration at or near the clinical Cmax and decreasing in half-log increments. If the clinical Cmax for an agent had not been determined, the highest concentration tested was 10 microM.
Cell Culture. All cells were maintained in an incubator at 37 degrees C and 5% CO2 with 95% humidity. The PDC lines were cultured according to standard operating procedures established by the NCI PDMR. All PDCs were thawed and cultured in Matrigel-coated flasks prepared with a working solution of 1X Ham's F-12 nutrient mix, without supplementation (Invitrogen, Waltham, MA, cat. 11765054), 100 U/mL penicillin-streptomycin (Invitrogen, cat. 15140122), and 2.5% Matrigel (Corning Inc., Corning, NY, cat. 354248) for the first three passages. The 362531-283-R-J2-PDC and 782815-120-R-J1-PDC lines were cultured in 6C/Colon 1B media, which includes advanced DMEM/F-12 (Thermo Fisher Scientific, cat. 12634028), 10 mM HEPES (Thermo Fisher Scientific, cat. 15630080), 1X GlutaMAX supplement (Thermo Fisher Scientific, cat. 35050061), 0.1 mg/mL primocin (InvivoGen, San Diego, CA, cat. ant-pm-2), 10% defined fetal bovine serum, heat inactivated (HyClone Laboratories Inc., Logan, UT, cat. SH30070.03HI), 50% L-WRN conditioned media (ATCC, cat. CRL-3276), 1.25 mM N-Acetyl-L-cysteine (Sigma-Aldrich, cat. A9165), 10 mM nicotinamide (Sigma-Aldrich, cat. N0636), 1X B-27 supplement (Thermo Fisher Scientific, cat. 17504044), 1X N-2 supplement (Thermo Fisher Scientific, cat. 17502048), 50 ng/mL human EGF (Thermo Fisher Scientific, cat. PHG0311), and 10 microM Y-27632 dihydrochloride (Tocris Bioscience, cat. 1254). The K12877-001-R-J1-PDC line was cultured in 6I media, which includes all 6C/Colon 1B media plus 10 ng/mL human FGF-10 (PeproTech, cat. 100-26), 1 ng/mL human FGF-2 (PeproTech, cat. 100-18B), 1 µM prostaglandin E2 (Tocris Bioscience, cat. 2296), […] hydrocortisone (Sigma-Aldrich, cat. H4001), and […] bovine insulin (Sigma-Aldrich, cat. I6634). The K86415-001-R-J1-PDC line was cultured in 6D media, which includes all 6C/Colon 1B media components minus the L-WRN conditioned media. The 485176-168-R4-J1-PDC was cultured in PANC media, which includes all 6C/Colon 1B media plus 100 ng/mL human FGF-10 (PeproTech, cat. 100-26), 500 nM SB-431542 (Selleckchem, cat. S1067), and 10 nM gastrin (Tocris Bioscience, cat. 3006). […]
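Note: spheroids exposed to compounds for 7 days before readout.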
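Throughout, for viability, T/C: 100% = DMSO vehicle control viability.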

- IC50 (second compound 0.0316 µM): 1040 nM
- IC50 (second compound 0.1 µM): 972 nM
- IC50 (second compound 0.316 µM): 422 nM
- IC50 (second compound 1 µM): < 31.6 nM
- IC50 (second compound 3.16 µM): < 31.6 nM
- IC50 (second compound 10 µM): < 31.6 nM
SMILES: CC(C)NCC(C(=O)N1CCN(c2ncnc3c2C(C)CC3O)CC1)c1ccc(Cl)cc1 (configuration not stated) + C#Cc1c(F)ccc2cc(O)cc(-c3ncc4c(N5CC6CCC(C5)N6)nc(OCC56CCCN5CC(F)C6)nc4c3F)c12
- viability, T/C (second compound 0.0316 µM, first compound 0.0316 µM): 102%
- viability, T/C (second compound 0.0316 µM, first compound 0.1 µM): 79.8%
- viability, T/C (second compound 0.0316 µM, first compound 0.316 µM): 63.7%
- viability, T/C (second compound 0.0316 µM, first compound 1 µM): 51.8%
- viability, T/C (second compound 0.0316 µM, first compound 3.16 µM): 38.7%
- viability, T/C (second compound 0.0316 µM, first compound 10 µM): 34.8%
- viability, T/C (second compound 0.1 µM, first compound 0.0316 µM): 79.9%
- viability, T/C (second compound 0.1 µM, first compound 0.1 µM): 70.9%
- viability, T/C (second compound 0.1 µM, first compound 0.316 µM): 61.6%
- viability, T/C (second compound 0.1 µM, first compound 1 µM): 50%
- viability, T/C (second compound 0.1 µM, first compound 3.16 µM): 39.3%
- viability, T/C (second compound 0.1 µM, first compound 10 µM): 33.4%
- viability, T/C (second compound 0.316 µM, first compound 0.0316 µM): 56.6%
- viability, T/C (second compound 0.316 µM, first compound 0.1 µM): 59.2%
- viability, T/C (second compound 0.316 µM, first compound 0.316 µM): 52%
- viability, T/C (second compound 0.316 µM, first compound 1 µM): 42.1%
- viability, T/C (second compound 0.316 µM, first compound 3.16 µM): 35%
- viability, T/C (second compound 0.316 µM, first compound 10 µM): 26.9%
- viability, T/C (second compound 1 µM, first compound 0.0316 µM): 39.3%
- viability, T/C (second compound 1 µM, first compound 0.1 µM): 39.4%
- viability, T/C (second compound 1 µM, first compound 0.316 µM): 35%
- viability, T/C (second compound 1 µM, first compound 1 µM): 30.9%
- viability, T/C (second compound 1 µM, first compound 3.16 µM): 22.9%
- viability, T/C (second compound 1 µM, first compound 10 µM): 21.1%
- viability, T/C (second compound 3.16 µM, first compound 0.0316 µM): 32%
- viability, T/C (second compound 3.16 µM, first compound 0.1 µM): 30.4%
- viability, T/C (second compound 3.16 µM, first compound 0.316 µM): 28.7%
- viability, T/C (second compound 3.16 µM, first compound 1 µM): 24.9%
- viability, T/C (second compound 3.16 µM, first compound 3.16 µM): 24.6%
- viability, T/C (second compound 3.16 µM, first compound 10 µM): 17.3%
- viability, T/C (second compound 10 µM, first compound 0.0316 µM): 25.4%
- viability, T/C (second compound 10 µM, first compound 0.1 µM): 23.5%
- viability, T/C (second compound 10 µM, first compound 0.316 µM): 22.3%
- viability, T/C (second compound 10 µM, first compound 1 µM): 21.6%
- viability, T/C (second compound 10 µM, first compound 3.16 µM): 17.1%
- viability, T/C (second compound 10 µM, first compound 10 µM): 11.2%
